Data reported in patent publication US10533015B1, “Opioid receptor antagonist prodrugs” (Nirsum Laboratories, Inc., priority 2019, dated 2020).

Legend:
physchem = settings: thermodynamic from solid; for solubility at 24 h: 25 °C, oil or lipid, heating temp. 60 °C, obs. temp. 25 °C
[1] = Plasma stability assay, rat plasma; format: in vitro ADME; settings: 10 μM, 37° C.
Procedure, shortened: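 Read-out: percent parent compound remaining, by HPLC-MS, duplicate incubations. Dog/monkey/human: 2 μM test compound, 1% solvent final, 37 °C, time points 0, 10, 30, 60, 120 min. Rat: time points 0, 15, 120, 480, 1440 min.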

[2] = Liver S9 fraction stability, monkey; format: in vitro ADME, cynomolgus monkey; settings: monkey liver S9, 1.0 mg/ml S9 protein, 2 μM, 37° C.
Description: (§1) Liver S9 fraction stability determination of the test compounds in dog, cynomolgus monkey and human is performed using HPLC-MS. Test compound (2 μM, 0.1% DMSO, 1% Methanol final concentration) was assessed for stability in a 50 μl phosphate buffer containing 1.0 mg/ml S9 protein from each of the three species and 5 mM D-saccharic acid-1, 4-lactone. Samples were incubated at 37° C. for 60 minutes and the % compound remaining was assessed.

[3] = Plasma stability assay, dog plasma; format: in vitro ADME; settings: 2 μM, 37° C.
Description: (§2) Plasma stability determination of the test compounds in rat, dog, cynomolgus monkey and human plasma is performed using HPLC-MS. For rat, incubations are carried out in 96-well polypropylene plates in 5 aliquots of 70 μL each (one for each time point). […] Five time points are analyzed (0, 15, 120, 480 and 1440 min). […] All incubations are performed in duplicates. The samples are analyzed by HPLC-MS. The percentage of parent compound remaining after incubation in plasma is determined.

[4] = Plasma stability assay, human plasma; format: in vitro ADME; settings: 2 μM, 37° C.
Description: as §2

[5] = Liver S9 fraction stability, dog; format: in vitro ADME; settings: dog liver S9, 1.0 mg/ml S9 protein, 2 μM, 37° C.
Description: as §1

[6] = Liver S9 fraction stability, human; format: in vitro ADME; settings: human liver S9, 1.0 mg/ml S9 protein, 2 μM, 37° C.
Description: as §1

[7] = Plasma stability assay, monkey plasma; format: in vitro ADME, cynomolgus monkey; settings: 2 μM, 37° C.
Description: as §2

[8] = Polymorph screening of solid state drug substances; settings: for Dry method and appearance: after stirring 50 °C 72 hours, dried solid; for XRPD results (Dried): dried solid after 50 °C 72 hours; for Visual observation 50° C. / Visual observation RT: target conc. 100 mg/ml
[9] = heating temp. 40 °C, obs. temp. 40 °C

With `C=C1CC[C@@]2(O)C3Cc4ccc(OC(=O)CCCCCCCCCCC)c5c4[C@@]2(CCN3CC2CC2)[C@H]1O5` [Compound 59, (4aS,7aS,12bS)-3-(cyclopropylmethyl)-4a-hydroxy-7-methylene-2,3,4,4a,5,6,7,7a-octahydro-1H-4,12-methanobenzofuro[3,2-e]isoquinolin-9-yl dodecanoate, reference compound] the solubility at 24 h (physchem; Approximate Solubility (mg/mL) in Excipient: Cottonseed oil, Cottonseed oil) was > 414 mg/mL, the solubility at 24 h (physchem; Approximate Solubility (mg/mL) in Excipient: Sesame oil, Sesame oil) was > 393 mg/mL and the solubility thermodynamic (physchem; 40 °C, water) was < 0.001 mg/mL. The “% remaining at time point” value ([1]; 0 min) was 100%, the “% remaining at time point” value ([1]; 15 min) was 5.9% and the “% remaining at time point” value ([1]; 120 min) was 0.7%. The “% remaining at time point” value ([1]; 480 min) was 0.2% and the “% remaining at time point” value ([1]; 1440 min) was 0%.
With `CCCCCCCCCCCC(=O)OCN1C(=O)CCc2ccc(OCCCCN3CCN(c4cccc(Cl)c4Cl)CC3)cc21` [Aripiprazole Lauroxil, reference compound] the “% remaining at 60 minutes” value [2] was 56.6%, the “% remaining at time point” value ([3]; 0 min) was 100% and the “% remaining at time point” value ([3]; 15 min (head)) was 103%. For the same compound, the “% remaining at time point” value ([3]; 120 min (head)) was 81.3%, the “% remaining at time point” value ([3]; 480 min (head)) was 78.6% and the “% remaining at time point” value ([3]; 1440 min (head)) was 74.3%. For the same compound, the “% remaining at time point” value ([4]; 0 min) was 100%, the “% remaining at time point” value ([4]; 15 min (head)) was 99.7% and the “% remaining at time point” value ([4]; 120 min (head)) was 80%. For the same compound, the “% remaining at time point” value ([4]; 480 min (head)) was 73.2%, the “% remaining at time point” value ([4]; 1440 min (head)) was 75.5% and the “% remaining at 60 minutes” value [5] was 66.1%. The “% remaining at 60 minutes” value [6] was 47.8%, the “% remaining at time point” value ([7]; 0 min) was 100% and the “% remaining at time point” value ([7]; 15 min (head)) was 95.2%. The “% remaining at time point” value ([7]; 120 min (head)) was 94.5%, the “% remaining at time point” value ([7]; 480 min (head)) was 75.5% and the “% remaining at time point” value ([7]; 1440 min (head)) was 83.2%. The “% remaining at time point” value ([1]; 0 min) was 100%, the “% remaining at time point” value ([1]; 15 min) was 84% and the “% remaining at time point” value ([1]; 120 min) was 85.5%. The “% remaining at time point” value ([1]; 480 min) was 76.4% and the “% remaining at time point” value ([1]; 1440 min) was 46%.
With `C=C1CC[C@@]2(O)C3Cc4ccc(OC(=O)OCCCCCCCCCCCCCCCC)c5c4[C@@]2(CCN3CC2CC2)[C@H]1O5` [Compound 19, (4aS,7aS,12bS)-3-(cyclopropylmethyl)-4a-hydroxy-7-methylene-2,3,4,4a,5,6,7,7a-octahydro-1H-4,12-methanobenzofuro[3,2-e]isoquinolin-9-yl hexadecyl carbonate] the “Dry method and appearance” value ([8]; Acetone) was “Evaporation/white powder”, the “XRPD results (Dried)” value ([8]; Acetone) was “Pattern A” and the “Visual observation 50° C.” value ([8]; Acetone) was “Clear”. For the same compound, the “Visual observation RT” value ([8]; Acetone) was “Slurry”, the “Dry method and appearance” value ([8]; EtOAc) was “Evaporation/white powder” and the “XRPD results (Dried)” value ([8]; EtOAc) was “Pattern A”. The “Visual observation 50° C.” value ([8]; EtOAc) was “Clear”, the “Visual observation RT” value ([8]; EtOAc) was “Slurry” and the “Dry method and appearance” value ([8]; Heptane) was “Evaporation/white powder”. The “XRPD results (Dried)” value ([8]; Heptane) was “Pattern A”, the “Visual observation 50° C.” value ([8]; Heptane) was “Clear” and the “Visual observation RT” value ([8]; Heptane) was “Slurry”. For the same compound, the “Dry method and appearance” value ([8]; Isopropanol) was “Evaporation/white powder”, the “XRPD results (Dried)” value ([8]; Isopropanol) was “Pattern A” and the “Visual observation 50° C.” value ([8]; Isopropanol) was “Clear”. The “Visual observation RT” value ([8]; Isopropanol) was “Slurry”, the “Dry method and appearance” value ([8]; MTBE) was “Evaporation/white powder” and the “XRPD results (Dried)” value ([8]; MTBE) was “Pattern A”. For the same compound, the “Visual observation 50° C.” value ([8]; MTBE) was “Clear”, the “Visual observation RT” value ([8]; MTBE) was “Clear” and the “% remaining at time point” value ([1]; 0 min) was 100%. The “% remaining at time point” value ([1]; 15 min) was 70.1%, the “% remaining at time point” value ([1]; 120 min) was 71.5% and the “% remaining at time point” value ([1]; 480 min) was 43.8%. The “% remaining at time point” value ([1]; 1440 min) was 33.3%, the “Approximate Solubility (mg/mL) in Excipient: Cottonseed oil” value ([9]; Cottonseed oil) was 67 to 80 mg/mL and the “Approximate Solubility (mg/mL) in Excipient: Ethanol” value ([9]; Ethanol) was 27 to 42 mg/mL. For the same compound, the “Approximate Solubility (mg/mL) in Excipient: Sesame oil” value ([9]; Sesame oil) was 103 to 137 mg/mL.
